This is an account of results in US20260061042A1, “POLYNUCLEOTIDE COMPOSITIONS AND USES THEREOF” (Pfizer Inc., priority 2024, published 2026).

In experiment [1] the target is T1, E. coli CFT073 PapG-II lectin domain PapGLD variant N96S G86A, SEQ ID NO: 14 (Escherichia coli, UniProt A0A0H2VAQ6, G106A/N116S).
T1 sequence (A0A0H2VAQ6 with tags, fused parts or gaps G106A/N116S): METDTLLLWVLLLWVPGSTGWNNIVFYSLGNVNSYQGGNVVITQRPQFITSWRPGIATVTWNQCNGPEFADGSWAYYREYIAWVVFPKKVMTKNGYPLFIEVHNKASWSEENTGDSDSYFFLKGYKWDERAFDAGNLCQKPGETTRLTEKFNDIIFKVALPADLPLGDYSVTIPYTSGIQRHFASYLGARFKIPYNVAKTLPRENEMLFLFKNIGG
In words: PapG Luminex ligand binding at equilibrium. Conditions: HEPES pH 7.4, 4° C. overnight. The method, then:
(§1) To determine the ability of PapGLD mutants to bind the porcine derived globotetraosyl ceramide ligand GalNAc-Gal-Gal-Glc-ceramide (GbO4), a Luminex ligand binding assay was developed. Surfactant Protein-A (SP-A) was coupled to the surface of MagPlex beads by EDC/NHS, to capture the lipid tail of the globotetraosyl ceramide. The Globotetraosyl ceramide/SP-A beads were incubated with an eight-point threefold titration of PapG in a 96 well flat bottom white plate with final volume of 100 microliters of 50 mM HEPES PH 7.4, 10 mM NaCl, 0.0005% Tween 20 shaking at 300 rpm, 4° C. overnight. After 20-24 hours the ligand binding plates were read on a FlexMap 3D plate reader for measurement of well-bead region specific MFI. Ligand binding equilibrium dissociation constants (Kd) were calculated assuming one site specific binding and interpolated using non-linear curve fitting (GraphPad Prism) as the ligand concentration needed to achieve half-maximal binding. The Luminex derived apparent Kd values are based on approximately fifty bead counts per assay sample.
(§2) To determine Luminex ligand binding affinities of PapG mutants for the synthetic globoside ligand Gal-Glc-phenoxy-octyl-amine (GbO2Mpo), a Luminex ligand binding assay was developed based on the direct coupling of the amine reactive globoside ligand to the EDC/NHS activated carboxylic surface of MagPlex beads. Synthesis of GbO2Mpo ligand with an octyl amine linker (for coupling to beads) was performed via methods described previously. The GbO2Mpo beads were incubated with an 8-point, threefold titration of PapG in a 96-well flat bottom white plate with final volume of 100 μl of 50 mM HEPES pH 7.4, 10 mM NaCl, 0.0005% Tween 20 shaking at 300 rpm, 4° C. overnight. After 20-24 hours the ligand binding plates were read on a FlexMap 3D plate reader for measurement of well-bead region specific MFI.
(§3) Binding of PapG proteins to GbO2 or GbO4 ligands was evaluated using a Luminex platform wherein ligands were coupled to MagPlex beads via surfactant protein A (for […]) or directly using […] conjugation (for […]). This assay was used to rank order binding affinities of the mutants, reported as Kd values interpolated from protein antigen titration curves (Table 7).

The target in experiment [2] is T2, E. coli CFT073 full-length donor strand complemented PapG-II, PapGDSF variant N96S N242S N286S K172A, SEQ ID NO: 26 (Escherichia coli, UniProt A0A0H2VAQ6, K192A/N116S/N262S/N306S).
T2 construct: mouse IgGK signal peptide, C-terminal 8xHis, ExpiCHO, purified
T2 sequence (A0A0H2VAQ6 with tags, fused parts or gaps N116S/K192A/N262S/N306S): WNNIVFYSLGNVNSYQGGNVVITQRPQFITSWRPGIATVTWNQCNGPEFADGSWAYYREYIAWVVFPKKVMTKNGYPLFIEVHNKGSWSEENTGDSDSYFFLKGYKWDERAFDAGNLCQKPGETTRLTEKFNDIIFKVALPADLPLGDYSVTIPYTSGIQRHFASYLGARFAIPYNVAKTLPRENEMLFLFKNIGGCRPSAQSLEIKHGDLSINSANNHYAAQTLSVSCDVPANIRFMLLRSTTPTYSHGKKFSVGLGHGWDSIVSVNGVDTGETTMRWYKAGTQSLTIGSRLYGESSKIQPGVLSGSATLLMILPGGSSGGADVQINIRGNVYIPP
Put plainly: PapG Luminex ligand binding at equilibrium. Particulars: for Kd: HEPES pH 7.4, 4° C. overnight. The protocol: as §1, §2, §3

[3] abbreviates: GbO4 beads, read-out: Kd (GbO4).
Where [4] appears, read: GbO2Mpo beads, read-out: Kd (GbO2).

Where two headings read alike, the source gives them in different places.

Broadly, the Kd is the free concentration of one partner at which half of the binding sites on the other are occupied at equilibrium, for simple one-to-one binding. Turning to GalNAc-Gal-Gal-Glc-ceramide [GbO4], the values for the Kd in experiment [1] (setting [3]) and in experiment [2] (setting [3]) were 15 nM and greater than 300 nM, respectively. In addition, in experiment [2], the “binding to GbO4 (in words)” value is “no binding was detected”.

On to Gal-Glc-phenoxy-octyl-amine [GbO2], for which the dissociation constant (Kd) in experiment [1] (setting [4]) was 1.3 nM; in experiment [2] (setting [4]) it was greater than 300 nM. Further, the “binding to GbO2 (in words)” value in experiment [2] is listed as “no binding was detected”.
